# Tests used:
# [1] = molecular target: T1, TDO (A172 human glioblastoma cells) (Homo sapiens, UniProt P48775); test: A172 Kynurenine cell based assay; details: 500 μM L-tryptophan, 48 hours, kynurenine by Erhlich's reagent
# T1 construct: This assay utilised cancer cells which expressed either TDO or IDO; endogenous in cells; host or cells: A172 human glioblastoma cells
# Protocol: (§1) Exemplary compounds of the invention were prepared, and tested to determine their effect as TDO and/or IDO inhibitors. Two different assays were employed: 1. a cell-based assay for detecting the effect of test compounds on kynurenine production in two different cancer cell types. This assay utilised cancer cells which expressed either TDO or IDO and as such was used as a means of testing compound activity at these two enzymes in a cell-based context. 2. a TDO and IDO biochemical coupled assay which utilised recombinantly produced and purified TDO and IDO enzymes in combination with the enzyme formamidase. This coupled enzyme system allowed conversion of N-formylkynurenine produced by TDO or IDO activity to kynurenine which was then quantified by fluorescence following addition of Erhlich's Reagent The protocols for these are set out below.
# A172 (human glioblastoma) and SKOV3 (human ovarian adenocarcinoma) cells were seeded in a 96 well plate at 30,000 or 40,000 cells per well respectively in phenol red-free RPMI supplemented with 10% FCS, 2 mM L-glutamine and 500 μM L-tryptophan. IDO expression was induced in the SKOV3 cells by the addition of 500 ng/ml IFN-γ. Cells were incubated at 37° C. with or without the addition of test compound. After 48 hours, the cells were removed by centrifugation and Erhlich's reagent was added to the supernatant. The Erhlich's reagent was incubated for 5 minutes before the absorbance was read at 490 nm.
# [2] = molecular target: T2, IDO (SKOV3 human ovarian adenocarcinoma cells, IFN-γ induced) (Homo sapiens, UniProt P14902); test: SKOV3 Kynurenine cell based assay; details: IDO induced by 500 ng/ml IFN-γ, 500 μM L-tryptophan, 48 hours
# T2 construct: IDO expression was induced in the SKOV3 cells by the addition of 500 ng/ml IFN-γ; endogenous in cells; host or cells: SKOV3 human ovarian adenocarcinoma cells, induced with IFN-γ
# Protocol: as §1
# A172 (human glioblastoma) and SKOV3 (human ovarian adenocarcinoma) cells were seeded in a 96 well plate at 30,000 or 40,000 cells per well respectively in phenol red-free RPMI supplemented with 10% FCS, 2 mM L-glutamine and 500 μM L-tryptophan. IDO expression was induced in the SKOV3 cells by the addition of 500 ng/ml IFN-γ. Cells were incubated at 37° C. with or without the addition of test compound. After 48 hours, the cells were removed by centrifugation and Erhlich's reagent was added to the supernatant.
# T1 sequence (P48775 whole entry): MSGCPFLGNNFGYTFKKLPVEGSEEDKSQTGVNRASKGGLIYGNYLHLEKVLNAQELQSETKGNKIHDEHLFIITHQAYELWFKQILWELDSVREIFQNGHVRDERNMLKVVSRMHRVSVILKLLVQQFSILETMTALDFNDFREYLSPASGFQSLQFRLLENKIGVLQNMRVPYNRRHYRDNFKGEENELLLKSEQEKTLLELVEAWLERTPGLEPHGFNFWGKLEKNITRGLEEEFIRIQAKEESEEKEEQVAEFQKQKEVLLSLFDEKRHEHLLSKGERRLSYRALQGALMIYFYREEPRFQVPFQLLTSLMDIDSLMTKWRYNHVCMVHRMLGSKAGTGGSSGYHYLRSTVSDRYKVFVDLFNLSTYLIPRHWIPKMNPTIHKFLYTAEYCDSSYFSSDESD
# T2 sequence (P14902 whole entry): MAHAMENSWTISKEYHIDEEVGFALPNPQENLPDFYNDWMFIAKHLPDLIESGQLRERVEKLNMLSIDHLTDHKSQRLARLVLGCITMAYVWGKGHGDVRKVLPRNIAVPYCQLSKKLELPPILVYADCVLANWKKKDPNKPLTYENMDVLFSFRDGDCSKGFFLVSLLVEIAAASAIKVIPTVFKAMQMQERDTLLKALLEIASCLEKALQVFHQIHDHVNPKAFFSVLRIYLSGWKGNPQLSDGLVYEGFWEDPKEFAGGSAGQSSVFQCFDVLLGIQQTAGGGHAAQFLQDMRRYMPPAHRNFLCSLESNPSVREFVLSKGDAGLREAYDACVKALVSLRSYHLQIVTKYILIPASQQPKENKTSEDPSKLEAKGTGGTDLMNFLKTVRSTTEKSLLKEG
A172 Kynurenine cell based assay pIC50 [1],SKOV3 Kynurenine cell based assay pIC50 [2],SMILES
++ (++ = pIC50 5.00-5.99),+− (+− = pIC50 <4.00),CC1(C)CN(c2c[nH]c3ccccc23)CCN1S(C)(=O)=O [Compound 191]
+ (+ = pIC50 4.00-4.99),+ (+ = pIC50 4.00-4.99),COc1cccc(C(=O)N2CCC(c3c[nH]c4cc(F)ccc34)CC2)n1 [Compound 273]
+ (+ = pIC50 4.00-4.99),+ (+ = pIC50 4.00-4.99),CS(=O)(=O)N1CCC(c2c[nH]c3ccc(C#N)cc23)CC1 [Compound 177]
+ (+ = pIC50 4.00-4.99),+ (+ = pIC50 4.00-4.99),CC(=O)N1CC=C(c2c[nH]c3c(Cl)cccc23)CC1 [Compound 196]
++ (++ = pIC50 5.00-5.99),++ (++ = pIC50 5.00-5.99),Fc1ccc2c(C3CCN(c4ccccn4)CC3)c[nH]c2c1 [Compound 193]
+ (+ = pIC50 4.00-4.99),+ (+ = pIC50 4.00-4.99),CS(=O)(=O)N1CCC(c2c[nH]c3cc(Cl)ccc23)CC1 [Compound 244]
++ (++ = pIC50 5.00-5.99),+ (+ = pIC50 4.00-4.99),CC(=O)N1CCN(c2c[nH]c3ccccc23)CC1(C)C [Compound 299]
+ (+ = pIC50 4.00-4.99),+ (+ = pIC50 4.00-4.99),CC(=O)N1CCC(c2c[nH]c3cnccc23)CC1 [Compound 203]
++ (++ = pIC50 5.00-5.99),+ (+ = pIC50 4.00-4.99),O=S(=O)(C1CCCC1)N1CCC(c2c[nH]c3cc(F)ccc23)CC1 [Compound 291]
++ (++ = pIC50 5.00-5.99),+ (+ = pIC50 4.00-4.99),CC(=O)N1CC=C(c2c[nH]c3cc(OCCN(C)C)ccc23)CC1 [Compound 255]
+ (+ = pIC50 4.00-4.99),+ (+ = pIC50 4.00-4.99),CC(=O)N1CCC(c2c[nH]c3cc(OCc4ccccc4)ccc23)CC1 [Compound 221]
+ (+ = pIC50 4.00-4.99),+ (+ = pIC50 4.00-4.99),CC(=O)N1CC=C(c2c[nH]c3cc(C(F)(F)F)ccc23)CC1 [Compound 223]
+ (+ = pIC50 4.00-4.99),+ (+ = pIC50 4.00-4.99),CS(=O)(=O)N1CCC(c2c[nH]c3cc(Cl)c(F)cc23)CC1 [Compound 243]
+ (+ = pIC50 4.00-4.99),+ (+ = pIC50 4.00-4.99),CC(=O)N1CCC(c2c[nH]c3cc(F)c(Cl)cc23)CC1 [Compound 252]
++ (++ = pIC50 5.00-5.99),+ (+ = pIC50 4.00-4.99),CS(=O)(=O)N1CC=C(c2c[nH]c3cc(F)c(Cl)cc23)CC1 [Compound 248]
++ (++ = pIC50 5.00-5.99),+ (+ = pIC50 4.00-4.99),CC(=O)N1CCC(c2c[nH]c3cc(F)ccc23)CC1(C)C (centres unmarked) [Compound 316]
+ (+ = pIC50 4.00-4.99),+ (+ = pIC50 4.00-4.99),O=C(N1CCC(c2c[nH]c3cc(F)ccc23)CC1)C1(c2ccccc2)CC1 [Compound 281]
+ (+ = pIC50 4.00-4.99),+ (+ = pIC50 4.00-4.99),CS(=O)(=O)N1CCC(c2c[nH]c3cc(F)c(Cl)cc23)CC1 [Compound 253]
+ (+ = pIC50 4.00-4.99),+− (+− = pIC50 <4.00),CS(=O)(=O)N1CCC(c2c[nH]c3ccccc23)C(O)C1 (centres unmarked) [Compound 187]

A172 Kynurenine cell based assay pIC50 [1],SKOV3 Kynurenine cell based assay pIC50 [2],SMILES
+ (+ = pIC50 4.00-4.99),+ (+ = pIC50 4.00-4.99),COCCN1CC(C(=O)N2CCC(c3c[nH]c4cc(F)ccc34)CC2)CC1=O (centres unmarked) [Compound 283]
++ (++ = pIC50 5.00-5.99),+ (+ = pIC50 4.00-4.99),CN(C)S(=O)(=O)N1CCC(c2c[nH]c3cc(F)ccc23)CC1 [Compound 250]
+ (+ = pIC50 4.00-4.99),+ (+ = pIC50 4.00-4.99),Cc1ccc2c(C3CCN(S(C)(=O)=O)CC3)c[nH]c2c1 [Compound 207]
++ (++ = pIC50 5.00-5.99),+− (+− = pIC50 <4.00),O=C1CN(c2c[nH]c3ccccc23)CCN1 [Compound 188]
+ (+ = pIC50 4.00-4.99),+ (+ = pIC50 4.00-4.99),CC(=O)N1CCC(c2c[nH]c3cc(C(F)(F)F)ccc23)CC1 [Compound 232]
+ (+ = pIC50 4.00-4.99),+ (+ = pIC50 4.00-4.99),CC(=O)N1CCC(c2c[nH]c3ccc(Cl)cc23)CC1 [Compound 238]
++ (++ = pIC50 5.00-5.99),+ (+ = pIC50 4.00-4.99),O=S(=O)(N1CCC(c2c[nH]c3cc(F)ccc23)CC1)C(F)(F)F [Compound 296]
+ (+ = pIC50 4.00-4.99),+ (+ = pIC50 4.00-4.99),O=C(C1CC(=O)N(C2CCCC2)C1)N1CCC(c2c[nH]c3cc(F)ccc23)CC1 (centres unmarked) [Compound 276]
+ (+ = pIC50 4.00-4.99),+ (+ = pIC50 4.00-4.99),O=S(=O)(N1CCCC1)N1CCC(c2c[nH]c3ccccc23)CC1 [Compound 213]
++ (++ = pIC50 5.00-5.99),+ (+ = pIC50 4.00-4.99),CC(=O)N1CCC(c2c[nH]c3cc(Cl)ccc23)CC1 [Compound 245]
+ (+ = pIC50 4.00-4.99),+ (+ = pIC50 4.00-4.99),Cn1nc(-c2ccccc2)cc1C(=O)N1CCC(c2c[nH]c3cc(F)ccc23)CC1 [Compound 279]
+ (+ = pIC50 4.00-4.99),+ (+ = pIC50 4.00-4.99),CCN(CC)S(=O)(=O)N1CCC(c2c[nH]c3ccccc23)CC1 [Compound 217]
++ (++ = pIC50 5.00-5.99),++ (++ = pIC50 5.00-5.99),CS(=O)(=O)N1CCC(c2c[nH]c3ccc(Cl)cc23)CC1 [Compound 239]
+ (+ = pIC50 4.00-4.99),+ (+ = pIC50 4.00-4.99),CS(=O)(=O)N1CCC(c2c[nH]c3cc(C(F)(F)F)ccc23)CC1 [Compound 234]
++ (++ = pIC50 5.00-5.99),+ (+ = pIC50 4.00-4.99),CC1(C)CC(c2c[nH]c3cc(F)ccc23)CCN1S(C)(=O)=O (centres unmarked) [Compound 317]
+ (+ = pIC50 4.00-4.99),+ (+ = pIC50 4.00-4.99),CC(=O)N1CCC(c2c[nH]c3ccc(OCc4ccccc4)cc23)CC1 [Compound 208]
++ (++ = pIC50 5.00-5.99),+ (+ = pIC50 4.00-4.99),CS(=O)(=O)N1CC=C(c2c[nH]c3cc(F)cc(F)c23)CC1 [Compound 215]
++ (++ = pIC50 5.00-5.99),+ (+ = pIC50 4.00-4.99),CCCn1cc(C(=O)N2CCC(c3c[nH]c4cc(F)ccc34)CC2)c(C)n1 [Compound 280]

# Reference: patent US9931347B2, “Pharmaceutical compound” (IOmet Pharma Ltd., priority 2013, dated 2018)
